Reference: paper PMC12537910, “Mosquito salivary sialokinin reduces monocyte activation and chikungunya virus-induced inflammation via neurokinin receptors” (Nature Communications, 2025)
Values joined by “and” are separate entries in the source; they are usually repeats but may differ in a detail not shown here. Equal entries are not always repeated. No end group written: not given here.

Key:
Assay type in all cases: cell-based
Akt = assay: Western blot P-Akt/Akt, human monocytes; conditions: for effect on sialokinin-stimulated phosphorylation of Akt: antagonist pre-treatment
Description: (§1) DEG analysis was performed using edgeR, with multiple testing corrected via the Benjamini–Hochberg FDR method. […] Relative expression levels of P-PI3K/PI3K (n = 4 biological replicates) and P-Akt/Akt (n = 5 biological replicates) in monocytes at the 20-min time point were quantified with ImageJ. Levels are expressed as fold change relative to the non-treated controls. Bar graphs represent the mean ± standard deviation (SD). […] CD169 levels at 24 h post-treatment were measured by mean fluorescence intensity (MFI) and expressed as fold change relative to non-treated controls. Statistical comparisons were performed using paired two-tailed t-test or Wilcoxon signed-rank test, depending on data distribution.
(§2) Freshly purified human monocytes and six-day-differentiated MDMs ([…] cells/well) were incubated with or without sialokinin peptides in complete IMDM supplemented with 10% (vol/vol) HS (Sigma-Aldrich) and 1% (vol/vol) penicillin-streptomycin. Untreated monocytes and MDMs served as no-treatment controls.
(§3) To detect the phosphorylation status of PI3K/Akt kinases following sialokinin stimulation, cells were lysed with lysis buffer (Cell Signaling Technology) containing 2 mM PMSF. Lysates were separated by SDS-PAGE and subjected to western blotting using the following antibodies: P-PI3K (p85; Tyr458/p55; Tyr199, Cell Signaling Technology, 1:2000), PI3K (p85, Cell Signaling Technology, 1:2000), P-Akt (Ser473, Cell Signaling Technology, 1:2000), and Akt (Cell Signaling Technology, 1:2000). Signal intensities were visualized using a ChemiDoc imaging system (Bio-Rad) and quantified using Image Lab software version 6.0.1 (Bio-Rad).

primary human monocytes = assay: CD169 expression after antagonist/inhibitor pre-treatment and sialokinin, monocytes; conditions: for CD 169 expression (MFI): monocytes 24 h, n = 5; for effect on sialokinin-mediated downregulation of CD169: pre-treatment 30 min before sialokinin, monocytes
Description: as §1, §2
Following harvesting, human monocytes and MDMs were specifically stained for the surface markers: CD45, CD14, CCR2, HLA-DR, CD16, CD11b, and CD169 (for monocytes); or CD45, CD14, HLA-DR, CD64, CD86, CD163, CD206, and CD169 (for MDMs). Dead cells were excluded by staining with the LIVE/DEAD Fixable Aqua Dead Cell Stain Kit (Life Technologies). The stained cells were subsequently incubated with FACS lysing solution (BD Biosciences) to lyse the red blood cells. Data were acquired on a Fortessa flow cytometer (BD Biosciences) with BD FACSDiva software version 9.0. Data analysis was performed using FlowJo version 9.3.2 (Tree Star, Inc.).

human NK1R [1] = molecular target: T1, human NK1R (Homo sapiens, UniProt P25103)
T1 construct: expressed in transfected cells; host or cells: CHO (CHO-K1) cells, stably transfected; gift from Dr Shinya Oishi, Kyoto University
Description: (§4) Supplementary Fig. 1: Molecular properties of sialokinin and its binding affinities to human neurokinin
(§5) (1 picture or pasted object on this page, not shown here)

PI3K = assay: Western blot P-PI3K/PI3K, human monocytes; conditions: for effect on sialokinin-stimulated phosphorylation of PI3K: antagonist pre-treatment
Description: as §1, §2, §3

human NK1R [2] = molecular target: T1, human NK1R; assay: Calcium flux assay, CHO cells expressing human NK1R; conditions: CHO-K1 cells expressing human NK1R; FLIPR; mean ± SEM of three independent experiments in triplicate; read-out: EC50 (peak calcium response)
Description: (§6) We assessed the binding affinity of sialokinin I, the predominant form in Aedes saliva, for human NK receptors using a calcium flux assay.
(§7) Calcium flux assay was carried out on CHO cells stably transfected with one of the human NK receptors (NK1R, NK2R, or NK3R). CHO cells were seeded at a density of 70,000 cells/well in 100 µL of Ham’s F-12 media in a black 96-well clear-bottom plate (Greiner). After overnight incubation, the media was replaced with Calcium 6 assay dye from Molecular Devices (1:1 dilution with buffer solution of 1× HBSS containing 20 mM HEPES) followed by incubation for 2 h at 37 °C for the absorption of dye into the cytoplasm. The intracellular calcium ion flux analysis was performed at different concentrations of sialokinin (tenfold dilution) using a FLIPR Tetra instrument (Molecular Devices). Fluorescence signal was recorded at excitation and emission wavelengths of 485 nm and 535 nm, respectively. The change in fluorescence is presented as the percent change with respect to baseline fluorescence. EC50 values were determined from dose-response curves plotted using Prism 5 (GraphPad).
as §4, §5

human NK3R = molecular target: T2, human NK3R (Homo sapiens, UniProt P29371); assay: Calcium flux assay, CHO cells expressing human NK3R; conditions: CHO-K1 cells expressing human NK3R; FLIPR; mean ± SEM of three independent experiments in triplicate; read-out: EC50 (peak calcium response)
T2 construct: expressed in transfected cells; host or cells: CHO (CHO-K1) cells, stably transfected; gift from Dr Shinya Oishi, Kyoto University
T2 sequence (P29371 1-465): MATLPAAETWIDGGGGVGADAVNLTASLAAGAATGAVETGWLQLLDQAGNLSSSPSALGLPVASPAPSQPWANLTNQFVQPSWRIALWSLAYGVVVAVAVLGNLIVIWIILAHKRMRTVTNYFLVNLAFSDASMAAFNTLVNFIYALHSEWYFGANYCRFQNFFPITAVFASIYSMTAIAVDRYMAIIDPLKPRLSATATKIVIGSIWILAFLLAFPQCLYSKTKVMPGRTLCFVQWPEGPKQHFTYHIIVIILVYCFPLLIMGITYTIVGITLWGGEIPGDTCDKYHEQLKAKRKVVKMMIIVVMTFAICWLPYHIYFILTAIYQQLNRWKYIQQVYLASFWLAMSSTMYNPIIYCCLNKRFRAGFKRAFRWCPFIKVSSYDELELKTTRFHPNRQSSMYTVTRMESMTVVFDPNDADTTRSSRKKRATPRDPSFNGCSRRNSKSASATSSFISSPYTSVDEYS
Description: as §6, §7, §4, §5

human NK2R = molecular target: T3, human NK2R (Homo sapiens, UniProt P21452); assay: Calcium flux assay, CHO cells expressing human NK2R; conditions: CHO-K1 cells expressing human NK2R; FLIPR; mean ± SEM of three independent experiments in triplicate; read-out: EC50 (peak calcium response)
T3 construct: expressed in transfected cells; host or cells: CHO (CHO-K1) cells, stably transfected; gift from Dr Shinya Oishi, Kyoto University
T3 sequence (P21452 1-398): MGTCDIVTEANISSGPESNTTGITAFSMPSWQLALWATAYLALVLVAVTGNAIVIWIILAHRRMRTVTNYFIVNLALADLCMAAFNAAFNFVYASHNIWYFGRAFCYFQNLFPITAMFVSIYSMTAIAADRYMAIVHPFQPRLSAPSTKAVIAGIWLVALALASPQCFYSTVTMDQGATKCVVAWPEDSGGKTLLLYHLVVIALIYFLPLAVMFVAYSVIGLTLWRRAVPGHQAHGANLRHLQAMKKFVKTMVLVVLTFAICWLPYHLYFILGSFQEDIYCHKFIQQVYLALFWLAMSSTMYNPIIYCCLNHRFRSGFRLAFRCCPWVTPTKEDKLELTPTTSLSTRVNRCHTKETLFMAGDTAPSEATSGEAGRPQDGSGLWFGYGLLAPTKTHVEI
Description: as §6, §7, §4, §5

[3] = GR-159897 + sialokinin, individual replicates

T1 sequence (P25103 whole entry): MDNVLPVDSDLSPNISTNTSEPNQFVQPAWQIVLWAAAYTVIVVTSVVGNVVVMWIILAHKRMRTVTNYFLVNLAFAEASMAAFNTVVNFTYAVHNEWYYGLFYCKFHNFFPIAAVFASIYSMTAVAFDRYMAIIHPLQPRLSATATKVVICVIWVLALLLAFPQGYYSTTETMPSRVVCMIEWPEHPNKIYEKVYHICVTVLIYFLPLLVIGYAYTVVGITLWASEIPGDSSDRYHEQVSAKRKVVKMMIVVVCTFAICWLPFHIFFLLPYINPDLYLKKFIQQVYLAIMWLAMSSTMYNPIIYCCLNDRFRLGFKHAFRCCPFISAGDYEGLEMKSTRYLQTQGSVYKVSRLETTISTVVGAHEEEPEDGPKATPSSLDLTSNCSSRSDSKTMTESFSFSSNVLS

For `COc1ccccc1CN[C@H]1C2CCN(CC2)[C@H]1C(c1ccccc1)c1ccccc1` [CP-96345], the “effect on sialokinin-stimulated phosphorylation of Akt” value (Akt) was “reduced”, the “CD 169 expression (MFI)” value (primary human monocytes; CP-96345 + sialokinin, individual replicates) was 387 MFI and 396 MFI and 194 MFI and 919 MFI and 1966 MFI and the “CD 169 expression (MFI)” value (primary human monocytes; CP-96345 inhibitor only, individual replicates) was 586 MFI and 529 MFI and 236 MFI and 1225 MFI and 3060 MFI. For the same compound, the “effect on sialokinin-mediated downregulation of CD169” value (“effect … of CD169” below) (primary human monocytes) was “only partially neutralized”, the “effect on Emax of sialokinin at NK1R” value (human NK1R [1]) was “without affecting the Emax value” and the “effect on sialokinin-stimulated phosphorylation of PI3K” value (PI3K) was “reduced”.
In the case of `COC1(C[S@@+]([O-])c2ccccc2)CCN(CCc2c[nH]c3ccc(F)cc23)CC1` [GR-159897], the “effect on sialokinin-stimulated phosphorylation of Akt” value (Akt) is reported as “reduced”, the “P-Akt/Akt (expression relative to untreated control)” value (Akt; pre-treatment with NK2R antagonist then sialokinin, 20 min, individual replicates, n = 5) is reported as 0.9906 and 1.222 and 1.192 and 0.816 and 0.7836 and the “CD169 relative fold change” value (primary human monocytes; [3]) is reported as 0.8629 and 0.8036 and 0.6381 and 0.8197 and 0.5757. The “CD 169 expression (MFI)” value (primary human monocytes; [3]) was 1530 MFI and 1669 MFI and 977 MFI and 2300 MFI and 1731 MFI, the “CD 169 expression (MFI)” value (primary human monocytes; GR-159897 inhibitor only, individual replicates) was 1773 MFI and 2077 MFI and 1531 MFI and 2806 MFI and 3007 MFI and the “effect … of CD169” value (primary human monocytes) was “only partially neutralized”. The “effect on sialokinin-stimulated phosphorylation of PI3K” value (PI3K) was “reduced” and the “P-PI3K/PI3K (expression relative to untreated control)” value (PI3K; pre-treatment with NK2R antagonist then sialokinin, 20 min, individual replicates, n = 4) was 0.877 and 0.977 and 0.987 and 0.967.
`O=c1cc(N2CCOCC2)oc2c(-c3ccccc3)cccc12` [LY-294002] was tested, and the “CD 169 expression (MFI)” value (primary human monocytes; LY-294002 + sialokinin, individual replicates) was 182 MFI and 164 MFI and 106 MFI and 91.9 MFI and 143 MFI, the “CD 169 expression (MFI)” value (primary human monocytes; LY-294002 inhibitor only, individual replicates) was 216 MFI and 280 MFI and 107 MFI and 103 MFI and 164 MFI and the “effect … of CD169” value (primary human monocytes) was “completely blocked”.
For NTGDKFYGLM-NH2 [Sialokinin I], the EC50 (human NK1R [2]) was 0.052 ± 0.028 nM, the EC50 (human NK3R) was 1.29 ± 0.281 nM and the EC50 (human NK2R) was 0.288 ± 0.107 nM.
